Source: patent US4317826A, “N,N'-Bis[substituted-1,2,3,4 tetrahydroisoquinolyl]disulfonylimides and antiallergic compositions and method of use” (SmithKline Corporation, priority 1980, dated 1982)

Tested on: slow reacting substance of anaphylaxis (SRS-A)
Test: Inhibition of SRS-A induced contraction of guinea pig ileum
Type: cell-based
Details: Cavia porcellus, 0.25 h, partially purified SRS-A from guinea pig lung at 40 μg/ml, 15 minute incubation, read-out: Percent Antagonism; for inhibition at 5 µM: compound concentration 5 × 10^-6 M
Protocol: The SRS-A antagonist activity of the compounds of this invention is measured by the ability of the active medicament to inhibit SRS-A induced contraction of guinea pig ileum. In this test system, sections of ileum are resected from guinea pigs and placed in 5 ml. tissue baths containing a modified Tyrode's solution. One end of the tissue is fixed to a glass tissue holder, the other is connected to a force-displacement transducer and the tissue is placed under a tension of 500 mg. Isometric tissue contractions are recorded on a six channel polygraph. Baths are constantly aerated with 95% O2 -5% CO2. After a 20 minute stabilization period a concentration of the appropriate agonist which provides a contraction height of 60-80% of the maximum obtainable to that agonist (as determined from full sequential concentration--response curves in separate experiments) is added to the tissue bath and the response recorded. The procedure is repeated until reproducible responses are obtained. For most agonists, two applications in rapid succession, followed 15 minutes later by a third, is sufficient to establish reproducibility. Experimental tissues are incubated with the selected concentration of the test compounds for 15 minutes. Experimental and control tissues are subjected to 5 bath changes during the incubation interval. Changes in bath fluid during the incubation period are helpful in insuring the reproducibility of tissue responses to the agonist. The same concentration of the agonist is reapplied in the presence of the test compound and the response registered and compared with controls. Percent inhibition produced by the test compound is calculated by subtracting the mean percentage change in control tissue from the mean percentage change in tissues exposed to the test compound. Additional compounds are then evaluated as long as the tissue remains reproducibly responsive to the agonist. Six tissues obtained from 6 animals are used simultaneously--3 controls and 3 experimental.
The compounds of this invention tested at concentrations of from 5×10^-5 to 5×10^-6 produce marked antagonism of partially purified slow reacting substance of anaphylaxis obtained from guinea pig lung. The agonist is employed at a concentration of 40 μg/ml. Representative of this effect, tabulated below are a number of the claimed compounds and percent antagonism of SRS-A at various compound concentrations.

| Structure (SMILES) | inhibition at 5 µM | inhibition at 50 µM (compound concentration 5 × 10^-5 M) |
| --- | --- | --- |
| O=S(=O)(NS(=O)(=O)N1CCc2ccc(C(F)(F)F)c(C(F)(F)F)c2C1)N1CCc2ccc(C(F)(F)F)c(C(F)(F)F)c2C1 [7-CF3 8-CF3 H H] | 26.8% | – |
| Cc1ccc2c(c1Cl)CN(S(=O)(=O)NS(=O)(=O)N1CCc3ccc(C)c(Cl)c3C1)CC2 [7-CH3 8-Cl H H] | 49.9% | – |
| O=S(=O)(NS(=O)(=O)N1CCc2cc(Cl)c(Cl)cc2C1)N1CCc2cc(Cl)c(Cl)cc2C1 [7-Cl 6-Cl H H] | 56.3% | – |
| CC(C)C1c2c(ccc(Cl)c2Cl)CCN1S(=O)(=O)NS(=O)(=O)N1CCc2ccc(Cl)c(Cl)c2C1C(C)C (centres unmarked) [7-Cl 8-Cl CH(CH3)2 H] | 63% | – |
| CC1Cc2ccc(Cl)c(Cl)c2CN1S(=O)(=O)NS(=O)(=O)N1Cc2c(ccc(Cl)c2Cl)CC1C (centres unmarked) [7-Cl 8-Cl H CH3] | 52.5% | – |
| O=S(=O)(NS(=O)(=O)N1CCc2ccc(Cl)c(Cl)c2C1)N1CCc2ccc(Cl)c(Cl)c2C1 [7-Cl 8-Cl H H, N,N'-bis(7,8-dichloro-1,2,3,4,-tetrahydroisoquinolyl)disulfonylimide] | 42% | – |
| O=S(=O)(NS(=O)(=O)N1CCc2ccc(Cl)c(Cl)c2C1C1CC1)N1CCc2ccc(Cl)c(Cl)c2C1C1CC1 (centres unmarked) [7-Cl 8-Cl [drawing 3] H] | 60% | – |
| O=S(=O)(NS(=O)(=O)N1CCc2ccc(Cl)c(SC(F)(F)C(F)F)c2C1)N1CCc2ccc(Cl)c(SC(F)(F)C(F)F)c2C1 [7-Cl 8-SCF2 CF2 H H H] | 36.2% | – |
| O=S(=O)(NS(=O)(=O)N1CCc2c(Br)ccc(Br)c2C1)N1CCc2c(Br)ccc(Br)c2C1 [8-Br 5-Br H H] | 22.9% | – |
| O=S(=O)(NS(=O)(=O)N1CCc2c(Br)cccc2C1)N1CCc2c(Br)cccc2C1 [H 5-Br H H] | 45.2% | – |
| O=S(=O)(NS(=O)(=O)N1CCc2cc(Cl)ccc2C1)N1CCc2cc(Cl)ccc2C1 [H 6-Cl H H] | – | 84.2% |
